Like-named read-outs stand apart in the source and are kept apart here. Where a SMILES comes first, the peptide text is derived from it. Side-chain parts run from the residue outwards. [ ]: non-standard residue; d: D form. The star is where a group is joined. DOTA = O=C(O)CN1CCN(CC(=O)O)CCN(CC(=O)*)CCN(CC(=O)O)CC1; dTyr(3-I) = N[C@H](Cc1ccc(O)c(I)c1)C(=O)O; 2Nal = N[C@@H](Cc1ccc2ccccc2c1)C(=O)O; dNMeOrn = CN[C@H](CCCN)C(=O)O; 4Abz = Nc1ccc(C(=O)O)cc1

We go through 13 compounds from PMC7381729, “A new class of PentixaFor- and PentixaTher-based theranostic agents with enhanced CXCR4-targeting efficiency” (Theranostics, 2020).

One data set addresses T1, human CXCR4 (hCXCR4) (Homo sapiens, UniProt P61073).
T1 construct: hCXCR4-expressing Jurkat human T-cell leukemia cells; endogenous in cells; host or cells: Jurkat human T-cell leukemia cells (whole cells)
The data set is described as follows: Competition binding to hCXCR4, Jurkat cells, [125I]FC-131 as radioligand. As to conditions: Jurkat cells 400.000 cells/sample, means ± SD of min. three separate experiments. Here is the method:
Experiments were performed in triplicate with n=3 per concentration in each experiment. IC50 values were calculated using GraphPad Prism 6.01 (Graph Pad Software, San Diego, USA).
Figure 2 Binding affinities (IC50 in nM) of the respective ^natGa-, ^natLu-, ^natY- and ^natBi-complexes of PentixaFor (entry 1), PentixaTher (entry 2) and a series of CPCR4-(blue) and iodoCPCR4-(black) derived analogs with modified linker structure (entries 3-14) to human CXCR4 (hCXCR4). […] Each experiment was performed in triplicate, and results are means ± SD from a minimum of three separate experiments. TEXT PRINTED IN THE PICTURE: 1: ^natGa-complex IC50 [nM]: 24.8 ± 2.5; ^natLu-complex IC50 [nM]: 41 ± 12; ^natY-complex IC50 [nM]: 40 ± 27 | 2: ^natGa-complex IC50 [nM]: 6.1 ± 1.5; ^natLu-complex IC50 [nM]: 14.6 ± 1.0; ^natY-complex IC50 [nM]: 20.4 ± 0.3; ^natBi-complex IC50 [nM]: 24.4 ± 3.7 | 3: ^natGa-complex IC50 [nM]: 282 ± 90; ^natLu-complex IC50 [nM]: 12.5 ± 3.2; ^natY-complex IC50 [nM]: 216 ± 33; ^natBi-complex IC50 [nM]: 27 ± 14 | 4: ^natGa-complex IC50 [nM]: 14.4 ± 0.3; ^natLu-complex IC50 [nM]: 28 ± 9; ^natY-complex IC50 [nM]: 83 ± 30 | 5: ^natLu-complex IC50 [nM]: 106 ± 10 | 6: ^natGa-complex IC50 [nM]: 7.9 ± 1.1; ^natLu-complex IC50 [nM]: 5.9 ± 0.3; ^natY-complex IC50 [nM]: 6.7 ± 1.2; ^natBi-complex IC50 [nM]: 14.5 ± 0.2 | 7: ^natGa-complex IC50 [nM]: 47 ± 8; ^natLu-complex IC50 [nM]: 39 ± 1; ^natY-complex IC50 [nM]: 43 ± 2 | 8: ^natGa-complex IC50 [nM]: 3.6 ± 0.7; ^natLu-complex IC50 [nM]: 3.5 ± 0.3; ^natY-complex IC50 [nM]: 4.1 ± 1.3; ^natBi-complex IC50 [nM]: 3.5 ± 0.4 | 9: ^natGa-complex IC50 [nM]: 8.9 ± 3.8; ^natLu-complex IC50 [nM]: 8.0 ± 3.1; ^natY-complex IC50 [nM]: 6.3 ± 2.5 | 10: ^natGa-complex IC50 [nM]: 2.4 ± 0.1; ^natLu-complex IC50 [nM]: 3.6 ± 1.1; ^natY-complex IC50 [nM]: 2.4 ± 0.2; ^natBi-complex IC50 [nM]: 38 ± 25 | 11: ^natGa-complex IC50 [nM]: 9.7 ± 2.8; ^natLu-complex IC50 [nM]: 5.4 ± 1.6; ^natY-complex IC50 [nM]: 8.7 ± 2.9 | 12: ^natGa-complex IC50 [nM]: 1.4 ± 0.2; ^natLu-complex IC50 [nM]: 2.1 ± 0.3; ^natY-complex IC50 [nM]: 2.1 ± 0.3; ^natBi-complex IC50 [nM]: 2.9 ± 0.1 | 13: ^natGa-complex IC50 [nM]: 0.4 ± 0.1; ^natLu-complex IC50 [nM]: 1.5 ± 0.1; ^natY-complex IC50 [nM]: 1.5 ± 0.1 | 14: ^natGa-complex IC50 [nM]: 2.6 ± 1.0; ^natLu-complex IC50 [nM]: 1.7 ± 0.6; ^natY-complex IC50 [nM]: 1.6 ± 0.5; ^natBi-complex IC50 [nM]: 1.8 ± 0.8

Data set [1] in a line: Biodistribution in Daudi xenograft bearing mice. Particulars: female, CB-17 SCID, mouse, iv, total radioactivity, 1h p.i., tracer only, i.v., γ-counter, means ± SD, n=4-5 (68Ga: n=4). In kind it is in vivo, mouse. As for the experimental part:
The biodistribution of selected compounds was investigated in Daudi (human B-cell lymphoma) xenograft bearing female CB-17 SCID mice (6-8 weeks, Charles River, Sulzfeld, Germany), [29]. All animal experiments were performed in accordance with current animal welfare regulations in Germany (approval #55.2-1-54-2532-71-13).
Animals (n=4-5 per group) were injected intravenously with 5-10 MBq (0.08-0.11 nmol peptide per mouse) of the respective ^68Ga- and^ 177Lu-labeled CXCR4 ligands in PBS (100 µL) into the tail vein under isoflurane anesthesia. CXCR4-specificity of binding was determined by coinjection of 50 µg AMD3100 per mouse. The animals were sacrificed 1, 6 and 48h post injection (p.i.), and the organs of interest were dissected. The radioactivity was measured in weighted tissue samples using a γ-counter. Data are expressed in % ID/g tissue (mean ± SD).

Data set [2] is described as follows: Small animal PET imaging in Daudi xenograft bearing mice. In kind it is in vivo. Particulars: CB17 SCID, mouse, iv, total radioactivity, 90 min p.i., dynamic PET, ROI analysis, n=1 per compound. As for the experimental part:
Small aminal PET imaging studies were performed using a Siemens Inveon PET scanner. Animals were anesthetized with isoflurane and injected via the tail vein with 10 to 15 MBq (0.1 nmol) of the respective tracer. Dynamic imaging (n=1 per compound) was performed after on-bed injection for 1.5 h, and static images (n=1 per compound) were acquired at 1 h p.i. with an acquisition time of 15 min. Data analysis was performed using the Inveon Research Workplace software. Images were reconstructed using a 3D ordered-subsets expectation maximum (OSEM3D) algorithm without scanner and attenuation correction. Time-activity curves (Figure 4) were obtained by generating isocontour regions of interest (ROI) for the tumor and the heart content (as a surrogate for blood activity), as well as by defining two spherical ROIs (each 23.4 mm^3) in the thigh area (muscle) and areas of homogenous tracer uptake in the liver, followed by plotting of average activity ± SD per volume in these ROIs over time.  Figure 4 Results from small animal PET imaging using [^68Ga]PentixaFor (top row), [^68Ga]DOTA-r-a-ABA-CPCR4 (middle row) and [^68Ga]DOTA-r-a-ABA-iodoCPCR4 (bottom row) in Daudi xenograft bearing CB17 SCID mice. Images on the left (MIP) were obtained by static imaging (1h p.i., n=1), the time activity curves (TAC) on the right were acquired by dynamic PET imaging (0-90 min p.i., n=1).

Data set [3] is described as follows: Lipophilicity, modified shake-flask method. It counts as physicochemical. Particulars: O/PBS, radiolabeled compound, means ± SD (n=6). As for the experimental part:
The lipophilicity (log PO/PBS) of the ^68Ga- and ^177Lu-labeled compounds in this study was determined via a modified shake-flask method.

Setting [4] is: natGa-complex, read-out: ^natGa-complex IC50 to hCXCR4.
Setting [5] is: natLu-complex, read-out: ^natLu-complex IC50 to hCXCR4.
[6] abbreviates: natY-complex, read-out: ^natY-complex IC50 to hCXCR4.
Setting [7] is: natBi-complex, read-out: ^natBi-complex IC50 to hCXCR4.

T1 sequence (P61073 whole entry): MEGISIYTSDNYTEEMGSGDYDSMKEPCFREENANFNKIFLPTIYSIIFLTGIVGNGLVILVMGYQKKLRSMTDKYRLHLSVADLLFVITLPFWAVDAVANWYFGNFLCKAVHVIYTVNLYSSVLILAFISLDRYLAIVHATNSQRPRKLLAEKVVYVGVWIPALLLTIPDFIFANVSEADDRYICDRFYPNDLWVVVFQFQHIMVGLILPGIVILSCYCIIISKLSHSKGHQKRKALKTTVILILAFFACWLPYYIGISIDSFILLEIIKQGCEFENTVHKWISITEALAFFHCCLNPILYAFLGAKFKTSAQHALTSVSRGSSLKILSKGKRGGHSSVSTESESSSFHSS

Take DOTA-r-G-ABA-CPCR4 [entry 11]: the IC50 on human CXCR4 (hCXCR4) (setting [4]) worked out at 9.7 ± 2.8 nM; on human CXCR4 (hCXCR4) (setting [5]), 5.4 ± 1.6 nM; at human CXCR4 (hCXCR4) (setting [6]) it was 8.7 ± 2.9 nM.

For “DOTA-k-G-ABA-iodoCPCR4 (head to tail) [entry 10]”, the IC50 worked out at 38 ± 25 nM on human CXCR4 (hCXCR4) (setting [7]), 2.4 ± 0.1 nM at human CXCR4 (hCXCR4) (setting [4]), 3.6 ± 1.1 nM at human CXCR4 (hCXCR4) (setting [5]) and 2.4 ± 0.2 nM on human CXCR4 (hCXCR4) (setting [6]).

Consider “DOTA-ABA-iodoCPCR4 (head to tail) [entry 3]”, for which the IC50 was 27 ± 14 nM on human CXCR4 (hCXCR4) (setting [7]), 282 ± 90 nM on human CXCR4 (hCXCR4) (setting [4]), 12.5 ± 3.2 nM at human CXCR4 (hCXCR4) (setting [5]) and 216 ± 33 nM on human CXCR4 (hCXCR4) (setting [6]).

Consider “DOTA-d-ABA-iodoCPCR4 (head to tail) [entry 5]”, for which, on human CXCR4 (hCXCR4) (setting [5]), the IC50 was 106 ± 10 nM.

For “DOTAGA-ABA-iodoCPCR4 (head to tail) [entry 4]”, the results for the IC50 on human CXCR4 (hCXCR4) (setting [4]), at human CXCR4 (hCXCR4) (setting [5]) and on human CXCR4 (hCXCR4) (setting [6]) were 14.4 ± 0.3 nM, 28 ± 9 nM and 83 ± 30 nM, respectively.

In the case of `C[C@@H](NC(=O)[C@@H](CCCNC(=N)N)NC(=O)CN1CCN(CC(=O)O)CCN(CC(=O)O)CCN(CC(=O)O)CC1)C(=O)Nc1ccc(C(=O)NCCC[C@@H]2C(=O)N[C@@H](CCCNC(=N)N)C(=O)N[C@@H](Cc3ccc4ccccc4c3)C(=O)NCC(=O)N[C@H](Cc3ccc(O)c(I)c3)C(=O)N2C)cc1` [[^68Ga]DOTA-r-a-ABA-iodoCPCR4, metal not drawn] (cyclo([2Nal]G[dTyr(3-I)][dNMeOrn]([4Abz-dA-dR-DOTA])R)), the tissue uptake at 1 h in data set [1] (blood, read-out: Biodistribution blood) was 3.71 ± 0.28 %ID/g; in data set [1] (colon, read-out: Biodistribution colon) it was 0.65 ± 0.29 %ID/g; in data set [1] (femur, read-out: Biodistribution femur), 1.41 ± 0.16 %ID/g; in data set [1] (heart, read-out: Biodistribution heart), 1.56 ± 0.2 %ID/g; in data set [1] (kidney, read-out: Biodistribution kidney) it was 6.25 ± 0.52 %ID/g; in data set [1] (muscle, read-out: Biodistribution muscle), 0.49 ± 0.08 %ID/g. Besides, the tissue uptake at 1 h was determined as 0.88 ± 0.06 %ID/g in data set [1] (pancreas, read-out: Biodistribution pancreas) and 1.18 ± 0.03 %ID/g in data set [1] (small intestine, read-out: Biodistribution small intestine). Moreover, the tissue uptake per volume at 1.5 h was 4.3 ± 0.4 %ID/mL in data set [2] (kidney, read-out: Kidney uptake in PET); 6.1 ± 0.1 %ID/mL in data set [2] (liver, average ± SD per volume in ROI, read-out: Liver uptake in PET); 14.2 ± 1.5 %ID/mL in data set [2] (tumor (Daudi xenograft), Daudi xenograft, read-out: Tumor accumulation in PET).

Regarding DOTA-k-G-ABA-CPCR4 [entry 9], the IC50 on human CXCR4 (hCXCR4) (setting [4]) is 8.9 ± 3.8 nM; at human CXCR4 (hCXCR4) (setting [5]), 8 ± 3.1 nM; at human CXCR4 (hCXCR4) (setting [6]) it was 6.3 ± 2.5 nM.

“DOTA-G-ABA-iodoCPCR4 (head to tail) [entry 6]”: the IC50 at human CXCR4 (hCXCR4) (setting [7]) came to 14.5 ± 0.2 nM; at human CXCR4 (hCXCR4) (setting [4]), 7.9 ± 1.1 nM; at human CXCR4 (hCXCR4) (setting [5]) it was 5.9 ± 0.3 nM; at human CXCR4 (hCXCR4) (setting [6]), 6.7 ± 1.2 nM.

Consider `CN1C(=O)[C@@H](Cc2ccc(O)c(I)c2)NC(=O)CNC(=O)[C@H](Cc2ccc3ccccc3c2)NC(=O)[C@H](CCCNC(=N)N)NC(=O)[C@H]1CCCNC(=O)c1ccc(NC(=O)CNC(=O)[C@@H](CCCNC(=N)N)NC(=O)CN2CCN(CC(=O)O)CCN(CC(=O)O)CCN(CC(=O)O)CC2)cc1` [[^177Lu]DOTA-r-G-ABA-iodoCPCR4] [metal not drawn] (cyclo([2Nal]G[dTyr(3-I)][dNMeOrn]([4Abz-Gly-dR-DOTA])R)), for which the “log PO/PBS” value in data set [3] was -2.7 ± 0.05.

Take `CN1C(=O)[C@@H](Cc2ccc(O)c(I)c2)NC(=O)CNC(=O)[C@H](Cc2ccc3ccccc3c2)NC(=O)[C@H](CCCNC(=N)N)NC(=O)[C@H]1CCCNC(=O)c1ccc(NC(=O)CNC(=O)[C@@H](CCCNC(=N)N)NC(=O)CN2CCN(CC(=O)O)CCN(CC(=O)O)CCN(CC(=O)O)CC2)cc1` [[^68Ga]DOTA-r-G-ABA-iodoCPCR4] [metal not drawn] (cyclo([2Nal]G[dTyr(3-I)][dNMeOrn]([4Abz-Gly-dR-DOTA])R)): the “log PO/PBS” value in data set [3] is reported as -3.0 ± 0.02.

As to “PentixaFor [entry 1, reference compound]”, the results for the IC50 at human CXCR4 (hCXCR4) (setting [4]), on human CXCR4 (hCXCR4) (setting [5]) and at human CXCR4 (hCXCR4) (setting [6]) were 24.8 ± 2.5 nM, 41 ± 12 nM and 40 ± 27 nM, respectively.

On to “DOTAGA-G-ABA-iodoCPCR4 (head to tail) [entry 7]”, for which the IC50 is 47 ± 8 nM on human CXCR4 (hCXCR4) (setting [4]), 39 ± 1 nM on human CXCR4 (hCXCR4) (setting [5]) and 43 ± 2 nM at human CXCR4 (hCXCR4) (setting [6]).

Consider “DOTA-AMBS-iodoCPCR4 (head to tail) [entry 2, PentixaTher]”, for which the IC50 worked out at 24.4 ± 3.7 nM at human CXCR4 (hCXCR4) (setting [7]), 6.1 ± 1.5 nM at human CXCR4 (hCXCR4) (setting [4]), 14.6 ± 1 nM at human CXCR4 (hCXCR4) (setting [5]) and 20.4 ± 0.3 nM at human CXCR4 (hCXCR4) (setting [6]).

A word on the IC50: it is the concentration that gives 50% inhibition.
